Measurements taken from PubChem BioAssay (NCI).
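Tested at 5 concentrations; 48 h exposure; 96-well plates; endpoints linearly interpolated, else capped at highest concentration. TGI: total growth inhibition.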

Experiments:
Experiment in all cases: NCI-60 cell line screen, 48 h
786-0 renal = test system: 786-0 renal
A498 renal = test system: A498 renal
A549 NSCLC = test system: A549 NSCLC
ACHN renal = test system: ACHN renal
CAKI-1 renal = test system: CAKI-1 renal
CCRF-CEM leukemia = test system: CCRF-CEM leukemia
COLO 205 colon = test system: COLO 205 colon
DMS 114 small cell lung = test system: DMS 114 small cell lung
DMS 273 small cell lung = test system: DMS 273 small cell lung
EKVX NSCLC = test system: EKVX NSCLC
HCC-2998 colon = test system: HCC-2998 colon
HCT-116 colon = test system: HCT-116 colon
HCT-15 colon = test system: HCT-15 colon
HL-60(TB) leukemia = test system: HL-60(TB) leukemia
HOP-62 NSCLC = test system: HOP-62 NSCLC
HT29 colon = test system: HT29 colon
IGROV1 ovarian = test system: IGROV1 ovarian
K-562 leukemia = test system: K-562 leukemia
KM12 colon = test system: KM12 colon
KM20L2 colon = test system: KM20L2 colon
LOX IMVI melanoma = test system: LOX IMVI melanoma
LXFL 529 NSCLC = test system: LXFL 529 NSCLC
M14 melanoma = test system: M14 melanoma
M19-MEL melanoma = test system: M19-MEL melanoma
MALME-3M melanoma = test system: MALME-3M melanoma
MOLT-4 leukemia = test system: MOLT-4 leukemia
NCI-H226 lung = test system: NCI-H226 lung
NCI-H23 lung = test system: NCI-H23 lung
NCI-H460 lung = test system: NCI-H460 lung
NCI-H522 lung = test system: NCI-H522 lung
OVCAR-3 ovarian = test system: OVCAR-3 ovarian
OVCAR-4 ovarian = test system: OVCAR-4 ovarian
OVCAR-5 ovarian = test system: OVCAR-5 ovarian
OVCAR-8 ovarian = test system: OVCAR-8 ovarian
RPMI-8226 leukemia = test system: RPMI-8226 leukemia
RXF 393 renal = test system: RXF 393 renal
SF-268 CNS = test system: SF-268 CNS
SF-295 CNS = test system: SF-295 CNS
SF-539 CNS = test system: SF-539 CNS
SK-MEL-28 melanoma = test system: SK-MEL-28 melanoma
SK-MEL-5 melanoma = test system: SK-MEL-5 melanoma
SK-OV-3 ovarian = test system: SK-OV-3 ovarian
SN12C renal = test system: SN12C renal
SNB-19 CNS = test system: SNB-19 CNS
SNB-78 CNS = test system: SNB-78 CNS
SR leukemia = test system: SR leukemia
SW-620 colon = test system: SW-620 colon
TK-10 renal = test system: TK-10 renal
U251 CNS = test system: U251 CNS
UACC-257 melanoma = test system: UACC-257 melanoma
UACC-62 melanoma = test system: UACC-62 melanoma
UO-31 renal = test system: UO-31 renal
XF 498 CNS = test system: XF 498 CNS

Measured: TGI

COC(=O)c1nn(-c2ccccc2)c(=O)cc1N=[N+]=[N-]
> 100 µM: 786-0 renal | A498 renal | A549 NSCLC | ACHN renal | CAKI-1 renal | CCRF-CEM leukemia | COLO 205 colon | DMS 114 small cell lung | DMS 273 small cell lung | EKVX NSCLC | HCC-2998 colon | HCT-116 colon | HCT-15 colon | HL-60(TB) leukemia | HOP-62 NSCLC | HT29 colon | IGROV1 ovarian | K-562 leukemia | KM12 colon | KM20L2 colon | LOX IMVI melanoma | LXFL 529 NSCLC | M14 melanoma | M19-MEL melanoma | MALME-3M melanoma | MOLT-4 leukemia | NCI-H226 lung | NCI-H23 lung | NCI-H460 lung | NCI-H522 lung | OVCAR-3 ovarian | OVCAR-4 ovarian | OVCAR-5 ovarian | OVCAR-8 ovarian | RPMI-8226 leukemia | RXF 393 renal | SF-268 CNS | SF-295 CNS | SF-539 CNS | SK-MEL-28 melanoma | SK-MEL-5 melanoma | SK-OV-3 ovarian | SN12C renal | SNB-19 CNS | SNB-78 CNS | SR leukemia | SW-620 colon | TK-10 renal | U251 CNS | UACC-257 melanoma | UACC-62 melanoma | UO-31 renal | XF 498 CNS
